We go through four molecules from US20120093875A1, “AMINOCYCLITOL COMPOUNDS, PROCESS FOR OBTAINING THEM AND USES” (priority 2009, published 2012).

For experiment [1], the system named is mouse iNKT cells. The experiment can be described thus: Mouse iNKT cells expansion in vitro in spleen cell cultures (flow cytometry, TCR/NK1.1). The class given is cell-based. The method, then: The compounds were assayed at a final concentration of 1 μg/mL in complete medium with 1% of methanol (MeOH), while the αGalCer (αGC) was used at 0.2 μg/mL. The cell cultures were labeled with anti-NK1-PE and anti-TCR-FITC specific antibodies. The percentages of NKT cells (double positive cells) were calculated within the population of electronically selected T cells.
First, the ability to induce the specific proliferation of mouse iNKT was determined by culture experiments in vitro. For that, spleen cells derived from female B57Bl/6 mice between 10 and 20 weeks were isolated and the red blood cells were removed by hypotonic lysis. The spleen cells are distributed in 96 U-well plates, between 100,000 and 500,000 cells per well, and incubated in the presence of each of the compounds 1a, 1b, 2b, 3a, 3b and 4b at a final concentration of 1 μg/mL in RPMI-1640 growth medium, 10% fetal serum, […], 1% methanol. […] The culture was analyzed at day 5 or 6 by flow cytometry, using TCR and NK1.1 specific antibodies. In the presence of the control αGalCer:
(§1) Mouse C57BL/6 spleen cells are obtained by isolation of the spleen of female mice from 8 to 12 weeks of age, according to protocols approved by the Animal and Human Research Ethics Committee of the Autonomous University of Barcelona. The spleens are disaggregated with the plunger of a syringe in […] in a laminar flow hood, removing the red blood cells with lysis buffer (Sigma-Aldrich). 5×10^5 cells are placed in the wells of 96 U-well plates, and incubated with 100 ng/mL of α-GalCer, OCH, or 1 μg/mL of the compounds 1a, 1b, 2b, 3a, 3b, and 4b in RPMI-1640 medium supplemented with 10% fetal calf serum (FCS) (Labclinics), 50 μM 2-mercaptoethanol, 2 mM L-glutamine and 1% methanol (non-toxic concentration for the cells), and grown at 37° C. in a 5% CO2 humidified atmosphere. 25 U/mL of recombinant human interleukin 2 are added at day 2 of culture.
The spleen cells cultures grown in the indicated conditions are analyzed by flow cytometry in a FACS Calibur (Beckton Dickinson Bioscience) for quantifying the levels of proliferation of the iNKTs after incubation with the compounds 1a, 1b, 2b, 3a, 3b, and 4b. The stimulated spleen cultures are washed and preincubated with 50 μl of staining medium (PBS with 2% FCS) with anti-CD16 (clone 2.4G2) for 20 min in ice. Subsequently the cells are washed and resuspended in staining medium with mouse anti-TCR antibody conjugated to fluorescein isothiocyanate (FITC) (clone H57-597, BD-Pharmingen) and anti-NK1.1 conjugated to avidin (clone PK-136, BD-Pharmingen) for 30 min in ice. […] The samples are analyzed in the flow cytometer (FACSCalibur) and the data are processed using the program CellQuest (BD Bioscience).
In general terms: A flow cytometer gives signals particle by particle.

For experiment [2], the system named is iNKT cells. The experiment can be described thus: Th1/Th2 deviation of the iNKT response (IFNγ versus IL-4 production). The class given is cell-based, mouse. To be noted: for type of cytokine response (Th1/Th2 profile): IL-4 versus IFNγ induction in mouse spleen cell cultures; for IFNγ/IL-4 ratio: cytokines in mouse spleen cell culture supernatants (ELISA).
Description: (§2) The CD1d glycolipidic ligands induce a deviation in the production of cytokines by iNKT cells to Th1 or Th2, depending on its ability to be presented by CD1d, and its structural characteristics recognized by the TCR. For quantifying more precisely the immunostimulating ability of the compound 4b and determining if it induces a deviation in the iNKT response, its ability to induce the production of IFNγ and IL-4 is titrated in the cell cultures using different concentrations, and comparing the same with the two prototypical ligands, αGalCer and OCH (dissolved in MeOH), that have been described as inducers of a Th1 and Th2 response, respectively.
as §1
For the determinations of IL-4 and IFNγ, culture supernatants are taken at day 4 or day 7, and stored at −70° C. or used immediately in ELISA assays (eBioscience) for quantifying the cytokines, following the manufacturer's instructions. Standard curves are generated with the recombinant cytokines included in the kit. The statistical significance of the results is analyzed using a t-Student test, considering significant differences with p<0.01. The compounds 1a, 1b, 2b, 3a, 3b, and 4b are resuspended in 100% methanol or 100% dimethyl sulfoxide at a concentration of 1 mg/mL, and a 1/10 use dilution in PBS is prepared, with a final concentration of 100 μg/mL. The compounds are heated at 56° C. for 10-30 min and sonicated, before being diluted in complete growth medium, with a final concentration of 1% vehicle in the cellular assay.
On the technique in general: An ELISA detects its analyte on a solid surface through an enzyme-linked reagent.

Experiment [3] concerns IL-4 production by iNKT cells. The experiment can be described thus: IL-4 production in mouse spleen cell cultures, dose-response (ELISA). The class given is cell-based. To be noted: dose-response (FIG. 3b).
Description: (§3) Quantifying of the production of IFNγ (FIG. 3A) and IL-4 (FIG. 3B) after the stimulation in vitro of cultures of mouse spleen cells containing lipidic agonists of iNKT cells in a dose-response assay.
as §2, with “respectively. […]” for “respectively.”
(§4) For the determinations of IL-4 and IFNγ, culture supernatants are taken at day 4 or day 7, and stored at −70° C. or used immediately in ELISA assays (eBioscience) for quantifying the cytokines, following the manufacturer's instructions. […] The statistical significance of the results is analyzed using a t-Student test, considering significant differences with p<0.01. […]

Experiment [4] has as its system IFNγ production by iNKT cells. Description: IFNγ production in mouse spleen cell cultures, dose-response (ELISA). The class given is cell-based. The note with it: dose-response (FIG. 3a).
Description: as §3, §2, §1, §4

[5] abbreviates: compound 1 μg/mL, 1% methanol, IL-2 at day 2, analysed day 5 or 6.

Structures are written as SMILES.

In the case of `CCCCCCCCCCCCCCCCCCCCCCCCCC(=O)N[C@@H](CNC1[C@H](O)[C@H](O)C(O)[C@H](O)[C@H]1O)[C@H](O)[C@H](O)CCCCCCCCCCCCCC` (some centres unmarked) [Compound 3a], in experiment [1] (setting [5]), the “expansion of iNKTs” value is given as “approximately 2 times”.
On to `CCCCCCCCCCCCCC[C@@H](O)[C@@H](O)[C@H](CNC1[C@H](O)[C@H](O)C(O)[C@H](O)[C@H]1O)NC(=O)CCCCCCC` (some centres unmarked) [Compound 3b], for which the “expansion of iNKTs” value in experiment [1] (setting [5]) is “approximately 2 times”.
For `CCCCCCCCCCCCCCCCCCCCCCCCCC(=O)N[C@@H](CN[C@H]1C[C@H](O)[C@@H](O)[C@H](O)[C@H]1O)[C@H](O)[C@H](O)CCCCCCCCCCCCCC` [Compound 4b, (2S,3S,4R)-2-hexacosanamide-1-(1′S,2′S,3′R,4′R,5′S)-2,3,4,5,-tetrahydroxycyclohexylaminooctadecane-3,4-diol], in experiment [2], the “type of cytokine response (Th1/Th2 profile)” value is “preferably Th2-type response” and the IFNγ/IL-4 ratio turned out to be 2. In addition, the “response compared with the Th2 response prototype OCH” value in experiment [2] (mouse spleen cell cultures, dose-response) is “lower response”. In addition, in experiment [3], the “concentration at which induction of IL-4 is maintained with high efficiency” value came to 100 ng/mL and the “concentration at which induction of IL-4 is still significant” value is listed as 33 ng/mL. For the same molecule, in experiment [1] (compound 1 μg/mL, increase from 1.2% baseline, day 5 or 6 (FIG. 1)), the “NKT cells as percentage of the T cells after incubation” value amounted to 6.2%. Also, in experiment [4], the “concentration at which production of IFNγ is induced” value is 333 ng/mL, the “concentration at which the maximal IFNγ response plateau is reached” value amounted to 1 µg/mL and the “magnitude of the maximal IFNγ response compared with α-GalCer” value was “lower magnitude”.
For the molecule `CCCCCCCCCCCCCCCCCCCCCCCCCC(=O)N[C@@H](CO[C@H]1O[C@H](CO)[C@H](O)[C@H](O)[C@H]1O)[C@H](O)[C@H](O)CCCCCCCCCCCCCC` [αGalCer, α-galactosylceramide, reference compound], in experiment [2], the “type of cytokine response (Th1/Th2 profile)” value is “high Th1 profile” and the IFNγ/IL-4 ratio came to 10. Moreover, the “expansion of the population of NKT cells over the baseline conditions” value in experiment [1] (αGalCer control (0.2 μg/mL per FIG. 1), 1% methanol, IL-2 at day 2, analysed day 5 or 6) was “more than 5 times”.
